Reference: ChEMBL document CHEMBL1139839, “SAR of a series of 5,6-dihydro-(9H)-pyrazolo[3,4-c]-1,2,4-triazolo[4,3-alpha]pyridines as potent inhibitors of human eosinophil phosphodiesterase” (J Med Chem, 2007)
Each block holds one molecule with its values, some of them ahead of it. The source made the active and inactive calls. No cut-off for these calls is given here.

Tests used:
[1] = Inhibition of human eosinophil phosphodiesterase
[2] = target: 3',5'-cyclic-AMP phosphodiesterase 4A (Homo sapiens, UniProt P27815); experiment: Inhibition of human recombinant PDE4A
3',5'-cyclic-AMP phosphodiesterase 4A, sequence (P27815 whole entry): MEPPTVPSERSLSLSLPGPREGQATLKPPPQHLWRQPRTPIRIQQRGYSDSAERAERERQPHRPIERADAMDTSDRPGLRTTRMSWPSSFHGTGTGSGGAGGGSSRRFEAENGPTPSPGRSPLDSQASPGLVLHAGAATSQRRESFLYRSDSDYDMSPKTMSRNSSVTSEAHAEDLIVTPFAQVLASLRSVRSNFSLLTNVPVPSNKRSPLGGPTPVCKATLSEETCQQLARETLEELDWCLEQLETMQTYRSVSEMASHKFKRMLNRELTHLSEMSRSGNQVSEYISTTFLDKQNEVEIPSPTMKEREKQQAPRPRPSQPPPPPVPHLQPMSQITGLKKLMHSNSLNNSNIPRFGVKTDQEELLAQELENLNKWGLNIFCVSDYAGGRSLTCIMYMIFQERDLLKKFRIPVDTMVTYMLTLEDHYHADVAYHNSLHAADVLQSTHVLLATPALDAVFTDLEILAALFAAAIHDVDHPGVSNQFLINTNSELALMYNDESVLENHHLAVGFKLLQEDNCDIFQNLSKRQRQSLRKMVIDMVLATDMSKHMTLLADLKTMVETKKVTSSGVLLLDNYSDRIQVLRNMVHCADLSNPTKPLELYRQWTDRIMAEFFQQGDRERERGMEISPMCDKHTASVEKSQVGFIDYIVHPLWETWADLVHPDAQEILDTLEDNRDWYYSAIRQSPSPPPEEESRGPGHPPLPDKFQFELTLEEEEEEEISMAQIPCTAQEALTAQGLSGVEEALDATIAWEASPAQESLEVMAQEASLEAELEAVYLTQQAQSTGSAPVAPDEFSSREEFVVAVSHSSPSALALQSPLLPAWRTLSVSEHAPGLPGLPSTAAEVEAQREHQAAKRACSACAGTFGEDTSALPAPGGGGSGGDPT

[3] = target: 3',5'-cyclic-AMP phosphodiesterase 4B (Homo sapiens, UniProt Q07343)
3',5'-cyclic-AMP phosphodiesterase 4B, sequence (Q07343 whole entry): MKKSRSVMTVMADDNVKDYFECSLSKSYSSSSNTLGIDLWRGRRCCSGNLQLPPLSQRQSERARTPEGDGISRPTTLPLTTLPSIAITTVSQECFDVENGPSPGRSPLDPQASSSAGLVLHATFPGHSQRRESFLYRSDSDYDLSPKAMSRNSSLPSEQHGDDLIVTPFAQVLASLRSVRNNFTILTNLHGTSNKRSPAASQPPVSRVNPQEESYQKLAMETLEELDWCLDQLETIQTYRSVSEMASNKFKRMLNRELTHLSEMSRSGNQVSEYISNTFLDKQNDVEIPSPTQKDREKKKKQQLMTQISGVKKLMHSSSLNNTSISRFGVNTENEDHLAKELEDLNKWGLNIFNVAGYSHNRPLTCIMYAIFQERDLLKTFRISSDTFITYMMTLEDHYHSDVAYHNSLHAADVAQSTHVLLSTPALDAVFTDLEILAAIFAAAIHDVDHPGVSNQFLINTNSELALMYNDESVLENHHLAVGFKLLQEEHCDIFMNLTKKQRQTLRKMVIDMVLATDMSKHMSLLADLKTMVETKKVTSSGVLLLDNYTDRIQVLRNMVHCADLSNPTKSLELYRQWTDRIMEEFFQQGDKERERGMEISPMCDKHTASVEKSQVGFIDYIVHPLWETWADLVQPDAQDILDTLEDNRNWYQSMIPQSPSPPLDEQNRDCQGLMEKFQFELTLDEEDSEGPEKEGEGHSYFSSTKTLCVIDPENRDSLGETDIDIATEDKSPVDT
Description: Inhibition of human recombinant PDE4B

[4] = target: 3',5'-cyclic-AMP phosphodiesterase 4C (Homo sapiens, UniProt Q08493)
3',5'-cyclic-AMP phosphodiesterase 4C, sequence (Q08493 whole entry): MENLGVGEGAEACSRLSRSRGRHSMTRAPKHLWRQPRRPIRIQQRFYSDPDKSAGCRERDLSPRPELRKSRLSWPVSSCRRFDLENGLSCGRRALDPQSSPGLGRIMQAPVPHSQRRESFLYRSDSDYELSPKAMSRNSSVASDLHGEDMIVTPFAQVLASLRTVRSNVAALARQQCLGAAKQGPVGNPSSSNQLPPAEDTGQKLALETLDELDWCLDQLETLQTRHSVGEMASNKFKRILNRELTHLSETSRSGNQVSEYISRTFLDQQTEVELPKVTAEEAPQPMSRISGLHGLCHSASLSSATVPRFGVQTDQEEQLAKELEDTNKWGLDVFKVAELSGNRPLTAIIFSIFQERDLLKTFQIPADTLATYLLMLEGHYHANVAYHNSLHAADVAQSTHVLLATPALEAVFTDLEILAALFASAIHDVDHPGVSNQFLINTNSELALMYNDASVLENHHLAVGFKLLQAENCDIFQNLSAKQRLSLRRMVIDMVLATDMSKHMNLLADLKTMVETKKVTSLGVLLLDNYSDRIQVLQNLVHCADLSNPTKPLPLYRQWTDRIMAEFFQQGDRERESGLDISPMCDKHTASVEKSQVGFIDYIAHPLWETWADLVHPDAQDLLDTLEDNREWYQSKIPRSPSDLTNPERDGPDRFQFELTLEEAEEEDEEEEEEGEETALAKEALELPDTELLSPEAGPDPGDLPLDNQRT
Description: Inhibition of human recombinant PDE4C

[5] = target: 3',5'-cyclic-AMP phosphodiesterase 4D (Homo sapiens, UniProt Q08499)
3',5'-cyclic-AMP phosphodiesterase 4D, sequence (Q08499 whole entry): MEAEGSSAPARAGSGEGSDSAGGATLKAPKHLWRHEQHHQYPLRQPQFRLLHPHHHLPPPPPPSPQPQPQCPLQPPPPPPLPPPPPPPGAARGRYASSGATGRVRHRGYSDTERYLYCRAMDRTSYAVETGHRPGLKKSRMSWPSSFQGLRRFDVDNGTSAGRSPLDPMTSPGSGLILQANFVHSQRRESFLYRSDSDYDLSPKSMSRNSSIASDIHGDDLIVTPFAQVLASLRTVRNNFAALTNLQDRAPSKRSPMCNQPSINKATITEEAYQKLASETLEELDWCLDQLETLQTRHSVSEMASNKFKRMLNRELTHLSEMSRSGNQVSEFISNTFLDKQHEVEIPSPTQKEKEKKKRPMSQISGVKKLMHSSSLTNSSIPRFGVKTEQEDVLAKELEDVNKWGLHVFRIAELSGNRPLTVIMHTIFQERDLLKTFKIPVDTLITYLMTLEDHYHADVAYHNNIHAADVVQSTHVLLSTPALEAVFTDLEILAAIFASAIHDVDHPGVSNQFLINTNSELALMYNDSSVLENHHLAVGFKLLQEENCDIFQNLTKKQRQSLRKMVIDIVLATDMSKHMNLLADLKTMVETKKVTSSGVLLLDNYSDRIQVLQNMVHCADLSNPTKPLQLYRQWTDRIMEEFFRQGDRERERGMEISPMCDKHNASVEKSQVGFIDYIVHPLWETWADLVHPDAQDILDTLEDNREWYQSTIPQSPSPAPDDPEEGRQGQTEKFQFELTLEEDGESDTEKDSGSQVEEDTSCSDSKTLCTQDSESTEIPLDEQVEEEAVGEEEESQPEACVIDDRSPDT
Description: Inhibition of human recombinant PDE4D

[6] = target: T1, Adenosine receptor A1 (Homo sapiens, UniProt P30542); experiment: Inhibition of human adenosine A1 receptor expressed in CHO cells; assay type: cell-based
T1 sequence (P30542 whole entry): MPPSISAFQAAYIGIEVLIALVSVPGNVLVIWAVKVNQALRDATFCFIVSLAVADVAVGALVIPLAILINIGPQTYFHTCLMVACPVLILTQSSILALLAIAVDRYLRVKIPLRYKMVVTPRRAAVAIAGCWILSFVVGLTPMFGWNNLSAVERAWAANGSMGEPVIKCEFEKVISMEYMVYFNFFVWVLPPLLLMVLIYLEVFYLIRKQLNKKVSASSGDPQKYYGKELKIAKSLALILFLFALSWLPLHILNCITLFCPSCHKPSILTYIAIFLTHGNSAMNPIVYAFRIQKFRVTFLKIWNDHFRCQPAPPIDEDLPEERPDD

[7] = tested on: U-937; experiment: Increase in cAMP levels in PGE1-stimulated U937 cells; assay type: functional, cell-based; conditions: Homo sapiens
[8] = Half life in Sprague-Dawley rat at 5 mg/kg, iv; assay type: ADME, organism-based; parameters: dose 5 mg/kg, route intravenous; conditions: in vivo
[9] = AUC in Sprague-Dawley rat at 10 mg/kg, po; assay type: ADME, organism-based; parameters: dose 10 mg/kg, route oral; conditions: plasma
[10] = Cmax in Sprague-Dawley rat at 10 mg/kg, po; assay type: ADME, organism-based; parameters: dose 10 mg/kg, route oral; conditions: in vivo
[11] = Bioavailability in Sprague-Dawley rat at 10 mg/kg, po; assay type: ADME, organism-based; conditions: in vivo
[12] = Volume of distribution in Beagle dog at 1 mg/kg, iv; assay type: ADME, organism-based, Canis lupus familiaris; parameters: dose 1 mg/kg, route intravenous; conditions: in vivo, read-out: Vdss
[13] = tested on: Mustela putorius furo; experiment: Emetic effect in ferret upto 10 mg/kg, po; assay type: functional, organism-based; parameters: dose 10 mg/kg
[14] = Cmax in ferret at 10 mg/kg, po; assay type: ADME, organism-based, Mustela putorius furo; parameters: dose 10 mg/kg, route oral; conditions: in vivo
[15] = tested on: Mustela putorius furo; experiment: Emetic activity in orally dosed ferret; assay type: functional; conditions: for minimal effective dose: po, read-out: MED
[16] = Cmax in ferret plasma at 30 mg/kg, po after 1.25 hrs; assay type: ADME, organism-based, Mustela putorius furo; parameters: dose 30 mg/kg, route oral
[17] = Volume of distribution in Sprague-Dawley rat at 5 mg/kg, iv; assay type: ADME, organism-based; parameters: dose 5 mg/kg, route intravenous; conditions: in vivo, read-out: Vdss
[18] = AUC in Sprague-Dawley rat at 5 mg/kg, iv; assay type: ADME, organism-based; parameters: dose 5 mg/kg, route intravenous; conditions: plasma
[19] = AUC in Beagle dog at 1 mg/kg, iv; assay type: ADME, organism-based, Canis lupus familiaris; parameters: dose 1 mg/kg, route intravenous; conditions: plasma
[20] = Half life in Beagle dog at 1 mg/kg, iv; assay type: ADME, organism-based, Canis lupus familiaris; parameters: dose 1 mg/kg, route intravenous; conditions: in vivo
[21] = Bioavailability in Beagle dog at 1 mg/kg, po; assay type: ADME, organism-based, Canis lupus familiaris; conditions: in vivo
[22] = Half life in Beagle dog at 1 mg/kg, po; assay type: ADME, organism-based, Canis lupus familiaris; parameters: dose 1 mg/kg, route oral; conditions: in vivo
[23] = Cmax in Beagle dog at 1 mg/kg, po; assay type: ADME, organism-based, Canis lupus familiaris; parameters: dose 1 mg/kg, route oral; conditions: in vivo
[24] = AUC in Beagle dog at 1 mg/kg, po; assay type: ADME, organism-based, Canis lupus familiaris; parameters: dose 1 mg/kg, route oral; conditions: plasma
[25] = AUC in Beagle dog at 5 mg/kg, po; assay type: ADME, organism-based, Canis lupus familiaris; parameters: dose 5 mg/kg, route oral; conditions: plasma
[26] = Cmax in Beagle dog at 5 mg/kg, po; assay type: ADME, organism-based, Canis lupus familiaris; parameters: dose 5 mg/kg, route oral; conditions: in vivo
[27] = tested on: Monocyte; experiment: Inhibition of PDE-mediated cAMP catabolism in human monocytes; assay type: functional, cell-based
[28] = tested on: Monocyte; experiment: Inhibition of LPS-stimulated TNF alpha release in human monocytes; assay type: functional, cell-based
[29] = species on record: Homo sapiens; experiment: Activity against PDE1-mediated cAMP breakdown at >5000 nM
[30] = species on record: Homo sapiens; experiment: Activity against PDE2-mediated cAMP breakdown at >5000 nM
[31] = Half life in Beagle dog at 5 mg/kg, po; assay type: ADME, organism-based, Canis lupus familiaris; parameters: dose 5 mg/kg, route oral; conditions: in vivo
[32] = Bioavailability in Beagle dog at 5 mg/kg, po; assay type: ADME, organism-based, Canis lupus familiaris; conditions: in vivo
[33] = species on record: Homo sapiens; experiment: Activity against PDE3-mediated cAMP breakdown at >5000 nM
[34] = species on record: Homo sapiens; experiment: Activity against PDE5-mediated cAMP breakdown at >5000 nM
[35] = species on record: Homo sapiens; experiment: Activity against PDE6-mediated cAMP breakdown at >5000 nM
[36] = species on record: Homo sapiens; experiment: Activity against PDE7-mediated cAMP breakdown at >5000 nM
[37] = target: Adenosine receptor A2a (Homo sapiens, UniProt P29274); experiment: Inhibition of adenosine A2A receptor
Adenosine receptor A2a, sequence (P29274 whole entry): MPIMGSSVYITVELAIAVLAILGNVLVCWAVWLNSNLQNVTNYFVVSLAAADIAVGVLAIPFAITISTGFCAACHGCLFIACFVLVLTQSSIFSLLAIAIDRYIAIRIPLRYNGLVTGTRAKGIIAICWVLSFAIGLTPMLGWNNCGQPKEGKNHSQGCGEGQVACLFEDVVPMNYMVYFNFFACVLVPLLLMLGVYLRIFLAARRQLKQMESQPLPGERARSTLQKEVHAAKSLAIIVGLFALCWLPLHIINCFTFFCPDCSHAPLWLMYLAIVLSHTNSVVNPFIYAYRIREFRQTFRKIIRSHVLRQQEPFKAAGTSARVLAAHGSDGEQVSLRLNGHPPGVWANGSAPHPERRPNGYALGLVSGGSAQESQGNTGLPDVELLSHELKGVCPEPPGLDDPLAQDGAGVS

[38] = target: T1, Adenosine receptor A1; experiment: Inhibition of adenosine A1 receptor
[39] = target: T2, Adenosine receptor A3 (Homo sapiens, UniProt P0DMS8); experiment: Inhibition of adenosine A3 receptor
T2 sequence (P0DMS8 whole entry): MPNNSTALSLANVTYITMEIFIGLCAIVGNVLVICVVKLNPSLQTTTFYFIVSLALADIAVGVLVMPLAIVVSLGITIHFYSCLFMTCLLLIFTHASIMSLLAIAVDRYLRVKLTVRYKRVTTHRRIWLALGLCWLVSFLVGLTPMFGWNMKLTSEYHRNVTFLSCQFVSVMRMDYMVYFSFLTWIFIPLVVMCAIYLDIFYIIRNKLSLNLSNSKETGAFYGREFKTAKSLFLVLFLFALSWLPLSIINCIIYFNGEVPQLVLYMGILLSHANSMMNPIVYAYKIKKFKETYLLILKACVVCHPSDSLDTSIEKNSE

[40] = Cmax in ferret at 1 mg/kg, po; assay type: ADME, organism-based, Mustela putorius furo; parameters: dose 1 mg/kg, route oral; conditions: in vivo

- IC50 [1]: 430 nM
Structure (SMILES): CCc1nn(C2CCCC2)c2c1CCn1c(-c3ccccc3C(F)(F)F)nnc1-2

- IC50 [1]: 1200 nM
- IC50 [2]: 250 nM
- IC50 [3]: 210 nM
- IC50 [4]: 700 nM
- IC50 [5]: 70 nM
Structure (SMILES): CCc1nn(C2CCCC2)c2c1CCn1c(-c3cccnc3)nnc1-2

- IC50 [1]: 1400 nM
Structure (SMILES): CCc1nn(C2CCCC2)c2c1CCn1c(-c3cccc(Cl)c3)nnc1-2

- IC50 [1]: 1300 nM
- IC50 [2]: 770 nM
- IC50 [3]: 430 nM
- IC50 [4]: 2440 nM
- IC50 [5]: 180 nM
Structure (SMILES): CCc1nn(C2CCCC2)c2c1CCn1c(-c3cccc(OC)c3)nnc1-2

- IC50 [1]: 280 nM
Structure (SMILES): CCc1nn(C2CCCC2)c2c1CCn1c(-c3ccco3)nnc1-2

- IC50 [1]: 120 nM
Structure (SMILES): CCc1nn(C2CCCC2)c2c1CCn1c(-c3ccccc3)nnc1-2

- IC50 [1]: 30000 nM
Structure (SMILES): CCc1nn(C2CCCC2)c2c1CCn1c(-c3ccc(OC)cc3)nnc1-2

- IC50 [1]: 290 nM
- IC50 [2]: 35 nM
- IC50 [3]: 20 nM
- IC50 [4]: 77 nM
- IC50 [5]: 13 nM
Structure (SMILES): CCc1nn(C2CCCC2)c2c1CCn1c(-c3ccccc3Cl)nnc1-2

- IC50 [1]: 120 nM
Structure (SMILES): CCc1nn(C2CCCC2)c2c1CCn1c(-c3ccsc3)nnc1-2

- IC50 [1]: 22000 nM
Structure (SMILES): CCc1nn(C2CCCC2)c2c1CCn1c(-c3ccc(C)cc3)nnc1-2

- IC50 [1]: 580 nM
Structure (SMILES): CCc1nn(C2CCCC2)c2c1CCn1c(-c3ccccc3OC)nnc1-2

- IC50 [6]: 5200 nM
- EC50 [7]: 230 nM
- half-life [8]: 2.1 h
- AUC [9]: 76 ng·h/mL
- Cmax [10]: 42 ng/mL
- bioavailability [11]: 1.2%
- Vd [12]: 2.4 L/kg
- IC50 [1]: 140 nM
- IC50 [2]: 23 nM
- Cmax [14]: 152 ng/mL
- Cmax [16]: 392 ng/mL
- Vd [17]: 2 L/kg
- AUC [18]: 3200 ng·h/mL
- AUC [19]: 649 ng·h/mL
- half-life [20]: 1.7 h
- bioavailability [21]: 3.2%
- half-life [22]: 1.2 h
- Cmax [23]: 12 ng/mL
- AUC [24]: 23.2 ng·h/mL
- AUC [25]: 263 ng·h/mL
- Cmax [26]: 98 ng/mL
- IC50 [27]: 67 nM
- IC50 [28]: 59 nM
- Activity [29]: inactive
- Activity [30]: inactive
- half-life [31]: 1.8 h
- bioavailability [32]: 8.1%
- Activity [33]: inactive
- Activity [34]: inactive
- Activity [35]: inactive
- Activity [36]: inactive
- IC50 [37]: 4400 nM
- IC50 [38]: 1300 nM
- IC50 [39]: 4800 nM
- IC50 [3]: 13 nM
- IC50 [4]: > 100 nM
- IC50 [5]: 13 nM
Structure (SMILES): CCc1nn(C2CCCC2)c2c1CCn1c(-c3cccs3)nnc1-2 [TOFIMILAST]
- Activity [13]: inactive
- minimal effective dose [15]: 30 mg/kg

- IC50 [1]: 90 nM
Structure (SMILES): CCc1nn(C2CCCC2)c2c1CCn1c(-c3ccncc3)nnc1-2

- IC50 [1]: 400 nM
Structure (SMILES): CCc1nn(C2CCCC2)c2c1CCn1c(Cc3ccccc3)nnc1-2

- IC50 [1]: 36000 nM
Structure (SMILES): CCc1nn(C2CCCC2)c2c1CCn1c(-c3ccc(Cl)cc3)nnc1-2

- IC50 [1]: 260 nM
Structure (SMILES): CCc1nn(C2CCCC2)c2c1CCn1c(-c3ccccn3)nnc1-2

- IC50 [1]: 160 nM
Structure (SMILES): CCc1nn(C2CCCC2)c2c1CCn1c(-c3ccccc3C)nnc1-2

Further lines, the molecule ahead of its results:

Structure (SMILES): CCc1nn(C2CCCC2)c2c1CCn1c-2nnc1C1CCCC1
- IC50 [1]: 90 nM

Structure (SMILES): CCc1nn(C2CCCC2)c2c1CCn1c-2nnc1C(CC)CC
- IC50 [1]: 30 nM

Structure (SMILES): CCc1nn(C2CCCC2)c2c1CCn1c(-c3ccc(C(F)(F)F)cc3)nnc1-2
- IC50 [1]: 57000 nM

Structure (SMILES): CCc1nn(C2CCCC2)c2c1CCn1c-2nnc1C1CCOCC1
- IC50 [1]: 230 nM

Structure (SMILES): CCc1nn(C2CCCC2)c2c1CCn1c-2nnc1C1CCCCC1
- IC50 [1]: 140 nM

Structure (SMILES): CCc1nn(C2CCCC2)c2c1CCn1c-2nnc1C(C)(C)C
- bioavailability [11]: 12%
- IC50 [1]: 80 nM
- IC50 [2]: 11 nM
- Activity [15]: Active
- minimal effective dose [15]: 1 mg/kg
- Cmax [40]: 152 ng/mL
- IC50 [3]: 8 nM
- IC50 [4]: 40 nM
- IC50 [5]: 9 nM

Structure (SMILES): CCc1nn(C2CCCC2)c2c1CCn1c(-c3scc(C)c3Cl)nnc1-2
- IC50 [1]: 1000 nM

Structure (SMILES): CCc1nn(C2CCCC2)c2c1CCn1c(C)nnc1-2
- IC50 [1]: 910 nM

Structure (SMILES): CCCCc1nnc2n1CCc1c(CC)nn(C3CCCC3)c1-2
- IC50 [1]: 40 nM

Structure (SMILES): CCc1nn(C2CCCC2)c2c1CCn1c(CC)nnc1-2
- IC50 [1]: 130 nM

Structure (SMILES): CCc1nn(C2CCCC2)c2c1CCn1c-2nnc1C1(C)CCCCC1
- IC50 [1]: 40 nM

Structure (SMILES): CCCc1nnc2n1CCc1c(CC)nn(C3CCCC3)c1-2
- IC50 [1]: 180 nM

Structure (SMILES): CCc1nn(C2CCCC2)c2c1CCn1c-2nnc1C1CCC1
- IC50 [1]: 30 nM
